For one data set, the system named is Sindbis virus. Kind of data set: Effective concentration resulting in a 50% reduction in virus production in BHK cells. Format: functional, organism-based.
The nature of data set [1]: Cytotoxic concentration for 50% growth inhibition of uninfected BHK cells. Format: cell-based, Mesocricetus auratus. As to conditions: hamster.

Bounds are passed on as bounds.

The EC50 is the concentration giving half of the maximal effect. Low readings indicate an effect from little substance, high ones a need for much substance. By CC50 is commonly meant the concentration that lowers cell viability or growth by half. The low end stands for harm at low concentration, the high end for better tolerance by the cells.

Take `C(C[C@@H]1COCCO1)C[C@@H]1COCCO1`: in the data set with Sindbis virus, a half-maximal effect (EC50) was put at 40 µM. Also, in data set [1], the CC50 was > 1000 µM.
`c1ccc(CCCC[C@@H]2COCCO2)cc1`: the EC50 with Sindbis virus is > 100 µM. This compound also had a half-maximal cytotoxic concentration (CC50) in data set [1] of 600 µM.
As for `O=C(C[C@@H]1COCCO1)C[C@@H]1COCCO1`, in the data set with Sindbis virus, the EC50 was > 100 µM. The CC50 in data set [1] is > 1000 µM.
The compound `OC[C@@H]1COCCO1` displayed an EC50 in the data set with Sindbis virus of 1 µM. For the same compound, the CC50 in data set [1] was > 1000 µM.
